# Source: patent EP2881391A1, “Spiroindoline carbocycle derivatives and pharmaceutical compositions thereof” (Bayer Pharma Aktiengesellschaft, priority 2013, dated 2015)
# Molecular target: T1, human GnRH receptor (Homo sapiens, UniProt P30968)
# T1 construct: line established by Prof; Thomas Gudermann; host or cells: CHO cells
# T1 sequence (P30968 1-328): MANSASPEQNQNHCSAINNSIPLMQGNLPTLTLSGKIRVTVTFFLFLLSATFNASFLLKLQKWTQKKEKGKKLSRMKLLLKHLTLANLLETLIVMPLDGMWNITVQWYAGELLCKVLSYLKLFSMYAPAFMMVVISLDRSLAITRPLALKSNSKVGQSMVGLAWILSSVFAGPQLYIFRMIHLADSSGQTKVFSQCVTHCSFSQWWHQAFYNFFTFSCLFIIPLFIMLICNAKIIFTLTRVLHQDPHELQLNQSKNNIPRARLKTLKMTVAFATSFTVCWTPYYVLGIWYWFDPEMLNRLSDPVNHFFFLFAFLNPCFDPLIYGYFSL
# Assay: IP-One HTRF assay (inhibition of GnRH-R activation by buserelin)
# Assay type: cell-based
# Conditions: IP-One HTRF assay with buserelin (at EC80) stimulation; CHO cells stably expressing human GnRH receptor; tested 20 µM to 1 nM; read-out: Potency IC50
# From the text: By using homogenous time-resolved fluorescence resonance energy transfer (HTRF), the generation of one component of the GnRH-R signalling cascade can be measured. After stimulation of CHO cells stably expressing human GnRH receptor (established by Prof. Thomas Gudermann, currently University of Marburg, Germany; supplied as frozen cell aliquots by Cell Culture Services, Hamburg, Germany) with the EC80 of the GnRH agonist buserelin, Gq protein-coupled receptor signalling cascade is activated resulting in PLC-dependent cleavage of PIP2 to Inositol-1,4,5-triphosphate (IP3) and Diacylglycerol. The second messenger IP3 is degraded intracellularly to myo-inositol. Inhibition of the final degradation step from Inositol-1-phosphate (IP1) to myo-inositol by addition of lithium chloride leads to accumulation of IP1 in the cells. In cell lysates, IP1 can be detected via an antibody-based HTRF detection technology, where IP1 can displace the FRET acceptor IP1-d2 from binding by Terbium-labelled anti-IP1 antibody as donor resulting in a signal decrease. Compounds were tested for their capability of inhibiting GnRH-R activation by buserelin. For all IP-One HTRF® assays reagents of Cisbio Bioassays (IP-One Tb Jumbo kit, #62IPAPEJ; Cisbio Bioassays, Bagnols sur Cèze Cedex, France) were used.
# For the assay, frozen cell aliquots were thawed and a cell suspension (3.33x10^6 cells/ml) containing IP1-d2 (dilution 1:40) was prepared and incubated at 37°C. After 1 h 3 µl of the cell suspension were added to 50 nl of a 100-fold concentrated solution of the test compound in DMSO pre-dispensed in a well of a white low-volume 384-well microtiter plate (Greiner Bio-One, Frickenhausen, Germany). The mixture was incubated for 20 min at 22°C to allow for pre-binding of the test compound to the GnRH-R. The receptor signaling cascade was stimulated by addition of 2 µl buserelin or LHRH (at EC50 or EC80) in stimulation buffer (10 mM Hepes pH 7.4, 1 mM CaCl2, 0.5 mM MgCl2, 4.2 mM KCI, 146 mM NaCl, 5.5 mM α-D-Glucose, 0.05% BSA, 125 mM LiCl (final assay concentration 50 mM) in aqua dest.). Plates were incubated for 1 h at 37°C and 5% carbon dioxide before the cells were lysed by adding 3 µl Terbium-labelled anti-IP1 antibody (1:40) diluted in Conjugate & Lysis buffer as supplied with the kit. After an incubation for 1 h at 22°C to enable complete cell lysis and antibody binding to free IP1 or IP1-d2, plates were measured in an HTRF reader, e.g. a RUBYstar, PHERAstar (both BMG Labtechnologies, Offenburg, Germany) or a Viewlux (PerkinElmer LAS, Rodgau-Jügesheim, Germany). From the fluorescence emissions at 665 nm (FRET) and at 620 nm (background signal of Terbium-antibody), the ratio (emission at 665 nm divided by emission at 620 nm) was calculated and the data were normalized (reaction without test compound = 0% inhibition; all other assay components except agonist = 100% inhibition). On the same microtiter plate, compounds were tested at 10 different concentrations in the range of 20 µM to 1 nM (20 µM, 6.7 µM, 2.2 µM, 0.74 µM, 0.25 µM, 82 nM, 27 nM, 9.2 nM, 3.1 nM and 1 nM; dilution series prepared before the assay at the level of the 100-fold conc. stock solutions by serial 1:3 dilutions in 100% DMSO) in duplicate values for each concentration. By using an in-house software, the IC50 values were calculated by a 4 parameter fit. The data reveal that the compounds of the present invention have antagonist activities on the human GnRH receptor. Within the meaning of the present invention the antagonist activity is reflected by the ability of a compound of the invention to antagonize human GnRH receptor stimulation in IP-One HTRF® assay at least three times the standard deviation over the background level.
row,Structure (SMILES),IC50
1,"O=C(Nc1cccc(Cl)c1)c1ccc2c(c1)C1(CCC(O)(C(F)(F)F)CC1)C(C1CC1)N2S(=O)(=O)c1ccc(F)cc1 (stereo not drawn) [Example 55, N-(3-chlorophenyl)-2'-cyclopropyl-1'-[(4-fluorophenyl)sulfonyl]-4-hydroxy-4-(trifluoromethyl)-1',2'-dihydrospiro[cyclohexane-1,3'-indole]-5'-carboxamide]",705 nM
2,"CC(C)=CCC1N(S(=O)(=O)c2ccc(F)cc2)c2ccc(C(=O)Nc3ccon3)cc2C12CCC(O)(C(F)(F)F)CC2 (stereo not drawn) [Example 17, 1'-[(4-fluorophenyl)sulfonyl]-4-hydroxy-2'-(3-methylbut-2-en-1-yl)-N-(1,2-oxazol-3-yl)-4-(trifluoromethyl)-1',2'-dihydrospiro[cyclohexane-1,3'-indole]-5'-carboxamide]",524 nM
3,"O=C(NCc1ccccc1Cl)c1ccc2c(c1)C1(CCC(O)(C(F)(F)F)CC1)C(C1CC1)N2S(=O)(=O)c1ccc(F)cc1 (single isomer, unassigned) [Example 62-1]",101 nM
4,"COC(=O)c1cccc(NC(=O)c2ccc3c(c2)C2(CCC(O)(C(F)(F)F)CC2)C(C2CC2)N3S(=O)(=O)c2cccc(OC)c2)c1 (stereo not drawn) [Example 31, methyl 3-[({2'-cyclopropyl-4-hydroxy-1'-[(3-methoxyphenyl)su Ifonyl]-4-(trifluoromethyl)-1',2'-dihydrospiro[cyclohexane-1,3'-indol]-5'-yl}carbonyl)amino] benzoate]",669 nM
5,"CC(C)=CCC1N(S(=O)(=O)c2ccc(F)cc2)c2ccc(C(=O)Nc3cncc(C(F)(F)F)c3)cc2C12CCC(O)(C(F)(F)F)CC2 (stereo not drawn) [Example 19, 1'-[(4-fluorophenyl)sulfonyl]-4-hydroxy-2'-(3-methylbut-2-en-1-yl)-4-(trifluoromethyl)-N-[5-(trifluoromethyl)pyridin-3-yl]-1',2'-dihydrospiro[cyclohexane-1,3'-indole]-5'-carboxamide]",9400 nM
6,"O=C(Nc1cccc(C(F)(F)F)c1)c1ccc2c(c1)C1(CCC(O)(C(F)(F)F)CC1)C(C1CC1)N2S(=O)(=O)c1ccc(F)cc1 (stereo not drawn) [Example 54, 2'-cyclopropyl-1 [(4-fluorophenyl)sulfonyl]-4-hydroxy-4-(trifluoromethyl)-N-[3-(trifluoromethyl)phenyl]-1',2'-dihydrospiro[cyclohexane-1,3'-indole]-5'-carboxamide]",2320 nM
7,"O=C1CCC2(CC1)c1cc(C(=O)NCc3ccccc3Cl)ccc1N(S(=O)(=O)c1ccc(F)cc1)C2C1CC1 (single isomer, unassigned) [Example 3-1]",41.3 nM
8,"COC(=O)c1cccc(S(=O)(=O)N2c3ccc(C(=O)NCc4ncc(C(F)(F)F)cc4F)cc3C3(CCC(O)(C(F)(F)F)CC3)C2C2CC2)c1 (stereo not drawn) [Example 28, methyl 3-{[2'-cyclopropyl-5'-({[3-fluoro-5-(trifluoromethyl)pyridin-2-yl]methyl}carbamoyl)-4-hydroxy-4-(trifluoromethyl)spiro[cyclohexane-1,3'-indol]-1'(2'H)-yl]sulfonyl}benzoate]",1780 nM
9,"COc1cccc(S(=O)(=O)N2c3ccc(C(=O)Nc4ccon4)cc3C3(CCC(O)(C(F)(F)F)CC3)C2C2CC2)c1 (stereo not drawn) [Example 38, 2'-cyclopropyl-4-hydroxy-1'-[(3-methoxyphenyl)su Ifonyl]-N-(1,2-oxazol-3-yl)-4-(trifluoromethyl)-1',2'-dihydrospiro[cyclohexane-1,3'-indole]-5'-carboxamide]",1680 nM
10,"O=C(Nc1ccon1)c1ccc2c(c1)C1(CCC(O)(C(F)(F)F)CC1)C(C1CC1)N2S(=O)(=O)c1ccc(F)cc1 (single isomer, unassigned) [Example 56-2]",17400 nM
11,"COc1cccc(S(=O)(=O)N2c3ccc(C(=O)Nc4cncc(C(F)(F)F)c4)cc3C3(CCC(O)(C(F)(F)F)CC3)C2C2CC2)c1 (stereo not drawn) [Example 40, 2'-cyclopropyl-4-hydroxy-1'-[(3-methoxyphenyl)su Ifonyl]-4-(trifluoromethyl)-N-[5-(trifluoromethyl)pyridin-3-yl]-1',2'-dihydrospiro[cyclohexane-1,3'-indole]-5'-carboxamide]",5650 nM
12,"O=C(Nc1ccon1)c1ccc2c(c1)C1(CCC(O)(C(F)(F)F)CC1)C(C1CC1)N2S(=O)(=O)c1ccc(F)cc1 (single isomer, unassigned) [Example 56-1]",215 nM
13,"Cc1cccc(NC(=O)c2ccc3c(c2)C2(CCC(O)(C(F)(F)F)CC2)C(C2CC2)N3S(=O)(=O)c2ccc(F)cc2)c1 (stereo not drawn) [Example 24, 2'-cyclopropyl-1'-[(4-fluorophenyl)sulfonyl]-4-hydroxy-N-(3-methylphenyl)-4-(trifluoromethyl)-1',2'-dihydrospiro[cyclohexane-1,3'-indole]-5'-carboxamide]",796 nM
14,"O=C(Nc1cc[nH]n1)c1ccc2c(c1)C1(CCC(O)(C(F)(F)F)CC1)C(C1CC1)N2S(=O)(=O)c1ccc(F)cc1 (stereo not drawn) [Example 52, 2'-cyclopropyl-1'-[(4-fluorophenyl)sulfonyl]-4-hydroxy-N-(1H-pyrazol-3-yl)-4-(trifluoromethyl)-1',2'-dihydrospiro[cyclohexane-1,3'-indole]-5'-carboxamide]",716 nM
15,"O=C(NCc1ccccc1Cl)c1ccc2c(c1)C1(CCC(F)(F)CC1)C(C1CC1)N2S(=O)(=O)c1ccc(F)cc1 (stereo not drawn) [Example 6, N-(2-chlorobenzyl)-2'-cyclopropyl-4,4-difluoro-1'-[(4-fluorophenyl)sulfonyl]-1',2'-dihydrospiro[cyclohexane-1,3'-indole]-5'-carboxamide]",489 nM
16,"COC(=O)c1cccc(NC(=O)c2ccc3c(c2)C2(CCC(O)(C(F)(F)F)CC2)C(C2CC2)N3S(=O)(=O)c2ccc(F)cc2)c1 (racemic) [Example 30, methyl 3-[({2'-cyclopropyl-1'-[(4-fluorophenyl)sulfonyl]-4-hydroxy-4-(trifluoromethyl)-1',2'-dihydrospiro[cyclohexane-1,3'-indol]-5'-yl}carbonyl)amino] benzoate]",227 nM
17,"CC(C)=CCC1N(S(=O)(=O)c2ccc(F)cc2)c2ccc(C(=O)Nc3cccc(C)c3)cc2C12CCC(O)(C(F)(F)F)CC2 (stereo not drawn) [Example 13, 1'-[(4-fluorophenyl)sulfonyl]-4-hydroxy-2'-(3-methylbut-2-en-1-yl)-N-(3-methylphenyl)-4-(trifluoromethyl)-1',2'-dihydrospiro[cyclohexane-1,3'-indole]-5'-carboxamide]",3250 nM
18,"O=C(NCc1ncc(F)cc1Cl)c1ccc2c(c1)C1(CCC(O)(C(F)(F)F)CC1)C(C1CC1)N2S(=O)(=O)c1ccc(F)cc1 (stereo not drawn) [Example 64, N-[(3-chloro-5-fluoropyridin-2-yl)methyl]-2'-cyclopropyl-1'-[(4-fluorophenyl)sulfonyl]-4-hydroxy-4-(trifluoromethyl)-1',2'-dihydrospiro[cyclohexane-1,3'-indole]-5'-carboxamide]",519 nM
